Data from patent US8871751B2, “Compositions and methods relating to nuclear hormone and steroid hormone receptors including inhibitors of estrogen receptor alpha-mediated gene expression and inhibition of breast cancer” (The Board of Trustees of the University of Illinois, priority 2008, dated 2014).
Blank lines part the entries; values can stand above or below the compound they belong to.

Columns and labels:
[1] = molecular target: T1, human ERα binding to flcERE (Homo sapiens, UniProt P03372); test: FAMA: inhibition of ERα binding to flcERE; settings: FAMA, binding to HRE, 5 concentrations 0.5-10 μM, sequential method; read-out: IC50 ERα
T1 construct: Full-length FLAG-tagged human ERα was expressed and purified as described previously (27); FLAG; made in house
T1 sequence (P03372 1-595): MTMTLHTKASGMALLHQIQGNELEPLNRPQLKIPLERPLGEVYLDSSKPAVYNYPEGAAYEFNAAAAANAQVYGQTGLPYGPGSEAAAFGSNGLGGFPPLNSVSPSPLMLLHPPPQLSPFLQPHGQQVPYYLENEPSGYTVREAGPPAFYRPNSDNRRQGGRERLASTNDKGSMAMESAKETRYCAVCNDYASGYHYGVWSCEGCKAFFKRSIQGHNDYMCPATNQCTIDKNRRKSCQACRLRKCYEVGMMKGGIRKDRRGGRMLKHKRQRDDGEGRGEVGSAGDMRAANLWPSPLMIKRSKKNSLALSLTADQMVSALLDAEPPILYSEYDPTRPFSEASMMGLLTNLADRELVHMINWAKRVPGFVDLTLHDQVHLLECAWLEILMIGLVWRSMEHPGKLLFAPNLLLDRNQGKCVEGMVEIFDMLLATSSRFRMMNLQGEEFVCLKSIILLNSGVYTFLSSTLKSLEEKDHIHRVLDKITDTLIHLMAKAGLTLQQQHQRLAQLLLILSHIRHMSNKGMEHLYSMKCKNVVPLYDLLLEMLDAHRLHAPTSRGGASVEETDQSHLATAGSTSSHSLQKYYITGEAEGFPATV
Method: Prior to screening, the 10 mM library stocks were diluted to produce replica libraries in 384-well plates containing each small molecule at 0.25 mM (in DMSO). In our initial studies we were concerned that forming the flcERE-ERα complex first and then adding the candidate small molecule inhibitors would miss small molecules that bind at the interface. We therefore screened using the “sequential” method in which the candidate small molecules were first incubated with ERα and followed by addition of the flcERE. The assay for binding of ERα to the flcERE is a modification of our earlier assay (27). Assays were carried out at room temperature in black wall 384-well microplates (Greiner/Bio-One) in a total volume of 10 μl in buffer containing 20 mM Tris pH 7.5, 10% glycerol, 0.2 mM EDTA, 2 mM DTT, 100 mM KCl, 0.5 ng/μl poly dl:dC, […] bovine serum albumin and 100 nM 17β-estradiol (E2). For high throughput screening, a master mix without ERα and probe was prepared at 4° C. The master mix was divided into 2 parts. ERα was added to one part to 5 nM in the final assays. 7 μl of the ERα-containing mix was then dispensed into each well of a 384-well plate on ice. 100 nl of the compounds being tested was then added using a pin-transporter (V & P Scientific, Inc, CA) to a final concentration of 2.5 μM. The samples were mixed using the pin-transporter and sedimented by centrifugation for 2 min. at 4° C. and incubated on ice for 10 min. The flcERE probe was added to the other aliquot of the mix to 1 nM. 3 μl of the mix containing the flcERE probe was added to each well containing ERα and the test compound. The samples were mixed using the pin-transporter, the plates were briefly centrifuged and incubated at room temperature for 10 min. and fluorescence anisotropy (FA) was measured using a BMG PheraStar (BMG Labtech) microplate reader (module: 485 520) with excitation at 485λ and emission at 520λ. To identify small molecules that were highly fluorescent, or quench fluorescence, fluorescence intensity was also measured.
(§1) Dose response curves for selected compounds were carried out as described for the HTS screen except that each well contained the indicated concentration of test compound. PR assays were carried out in the same buffer used for ERα assays and contained 1 nM flcPRE and 11 nM PR-B and 100 nM progesterone. The buffer used for AR was similar but also contained 5 μM ZnCl, 5 mM NaF, 0.6 μM CHAPS and 100 nM dihydrotestosterone. AR assays contained 1 nM flcARE and 50 nM full-length wild-type AR.

[2] = molecular target: T2, human androgen receptor (AR) binding to flARE (Homo sapiens, UniProt P10275); test: FAMA: inhibition of AR binding to flcARE; settings: binding to HRE, 5 concentrations 0.5-10 μM, sequential method
T2 construct: AR assays contained 1 nM flcARE and 50 nM full-length wild-type AR; FLAG; made in house
T2 sequence (P10275 1-920): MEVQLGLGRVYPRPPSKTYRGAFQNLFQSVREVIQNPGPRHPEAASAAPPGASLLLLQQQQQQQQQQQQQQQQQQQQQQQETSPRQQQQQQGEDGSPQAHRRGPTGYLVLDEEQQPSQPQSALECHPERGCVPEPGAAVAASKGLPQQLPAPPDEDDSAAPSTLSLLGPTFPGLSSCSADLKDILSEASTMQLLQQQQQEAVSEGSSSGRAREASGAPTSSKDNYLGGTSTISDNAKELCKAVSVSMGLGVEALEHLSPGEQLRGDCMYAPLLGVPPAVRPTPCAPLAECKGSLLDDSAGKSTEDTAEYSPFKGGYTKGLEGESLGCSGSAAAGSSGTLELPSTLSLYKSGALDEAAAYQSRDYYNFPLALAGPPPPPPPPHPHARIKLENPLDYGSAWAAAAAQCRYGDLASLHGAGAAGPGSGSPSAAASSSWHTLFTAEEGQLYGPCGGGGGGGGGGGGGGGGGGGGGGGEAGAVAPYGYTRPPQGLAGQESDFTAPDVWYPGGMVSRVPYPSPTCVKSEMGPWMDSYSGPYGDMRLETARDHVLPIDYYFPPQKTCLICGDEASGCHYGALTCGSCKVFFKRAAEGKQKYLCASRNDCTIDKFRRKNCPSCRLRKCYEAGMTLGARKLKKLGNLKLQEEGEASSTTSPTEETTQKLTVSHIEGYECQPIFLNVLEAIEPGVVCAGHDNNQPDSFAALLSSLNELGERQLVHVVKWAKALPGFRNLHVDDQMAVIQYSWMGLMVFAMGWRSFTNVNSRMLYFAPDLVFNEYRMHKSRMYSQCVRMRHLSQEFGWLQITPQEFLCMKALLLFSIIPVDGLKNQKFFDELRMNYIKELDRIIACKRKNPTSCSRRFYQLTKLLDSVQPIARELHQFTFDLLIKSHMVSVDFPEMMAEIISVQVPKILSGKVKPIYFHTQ
Method: as §1
(§2) Specificity was evaluated in dose-response studies by quantitative FAMA using purified full-length human PR binding to a fluorescein-labeled progesterone/glucocorticoid response element (flPRE) and full-length human androgen receptor (AR) binding to a fluorescein-labeled androgen response element (flARE).

[3] = molecular target: T3, human PR-B binding to flPRE (Homo sapiens, UniProt P06401); test: FAMA: inhibition of PR binding to flcPRE; settings: binding to HRE, 5 concentrations 0.5-10 μM, sequential method
T3 construct: FLAG; made in house
T3 sequence (P06401 1-933): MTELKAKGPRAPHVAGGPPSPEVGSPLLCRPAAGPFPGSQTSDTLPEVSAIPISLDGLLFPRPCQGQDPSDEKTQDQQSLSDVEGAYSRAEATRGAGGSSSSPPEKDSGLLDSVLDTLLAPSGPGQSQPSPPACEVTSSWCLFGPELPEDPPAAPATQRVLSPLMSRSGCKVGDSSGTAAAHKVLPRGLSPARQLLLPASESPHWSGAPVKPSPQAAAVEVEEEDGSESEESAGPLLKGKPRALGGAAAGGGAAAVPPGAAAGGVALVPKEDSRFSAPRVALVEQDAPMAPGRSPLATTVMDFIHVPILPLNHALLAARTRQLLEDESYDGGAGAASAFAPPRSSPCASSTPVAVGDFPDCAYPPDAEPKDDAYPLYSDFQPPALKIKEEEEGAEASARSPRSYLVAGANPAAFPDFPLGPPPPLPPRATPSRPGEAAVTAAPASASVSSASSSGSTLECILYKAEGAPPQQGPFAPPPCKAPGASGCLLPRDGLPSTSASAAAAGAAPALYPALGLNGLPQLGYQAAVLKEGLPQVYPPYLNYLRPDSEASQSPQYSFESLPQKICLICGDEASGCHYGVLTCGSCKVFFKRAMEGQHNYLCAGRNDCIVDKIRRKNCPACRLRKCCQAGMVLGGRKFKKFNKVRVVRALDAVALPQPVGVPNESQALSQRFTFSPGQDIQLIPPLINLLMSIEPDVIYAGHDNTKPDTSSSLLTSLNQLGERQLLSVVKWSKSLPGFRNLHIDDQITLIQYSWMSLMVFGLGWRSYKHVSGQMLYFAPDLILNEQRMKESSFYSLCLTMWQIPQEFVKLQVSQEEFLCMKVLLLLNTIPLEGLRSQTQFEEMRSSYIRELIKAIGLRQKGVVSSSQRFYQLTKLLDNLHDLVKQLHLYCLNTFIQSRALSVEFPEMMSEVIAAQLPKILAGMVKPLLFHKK
Method: as §1, §2

IC50 [1]: 0.8 µM | IC50 [2]: 1 µM | IC50 [3]: 1.5 µM
SMILES: CCCCC(C)O (stereo not shown) [Compound 3706]

IC50 [1]: 7.5 µM | IC50 [2]: > 10 µM | IC50 [3]: > 10 µM
SMILES: Brc1cccs1 [Compound 4456]

IC50 [1]: 2.5 µM | IC50 [2]: 4.8 µM | IC50 [3]: 4 µM
SMILES: CCOC(=O)C(CC)(C(=O)OCC)C(C)C [Compound 4695]

IC50 [1]: 6.5 µM | IC50 [2]: 4.5 µM | IC50 [3]: 7.3 µM
SMILES: CCCCCCCCCCCCCCCC[N+](C)(C)CCN(Cc1ccc(OC)cc1)c1ncccn1 [Compound 5648]

IC50 [1]: 8 µM | IC50 [2]: 5.5 µM | IC50 [3]: 7.5 µM
SMILES: O=[N+]([O-])/C=C/c1ccco1 [Compound 5650]

IC50 [1]: 5 µM | IC50 [3]: > 10 µM
SMILES: CC(=O)N(C)c1ccc(N)cc1 [Compound 7107]

IC50 [1]: 9.8 µM | IC50 [2]: > 10 µM | IC50 [3]: > 10 µM
SMILES: CCN(CC)CCOC(=O)c1cc(Br)cc(-c2ccccc2)c1O [Compound 7450]

IC50 [1]: > 10 µM | IC50 [2]: > 10 µM | IC50 [3]: > 10 µM
SMILES: O=C(O)c1cccc2cccc(-c3cccc4cccc(C(=O)O)c34)c12 [Compound 7810]

IC50 [1]: 2.6 µM | IC50 [2]: > 10 µM | IC50 [3]: > 10 µM
SMILES: CCCCCCC1(c2cccnc2)NC(=O)NC1=O (stereo not shown) [Compound 9503]

IC50 [1]: 9 µM | IC50 [2]: 9 µM
SMILES: CCc1c(O)c2c(c(O)c1C(C)=O)C(=O)c1c(cc(O)c(C(=O)O)c1C(=O)O)C2=O [Compound 170008]

The next lines start with the compound.

SMILES: O=C(OC1C2COC(O2)C(OC(=O)c2ccccc2)C1OC(=O)c1ccccc1)c1ccccc1 (stereo not shown) [Compound 1387]
IC50 [1]: 4.5 µM | IC50 [2]: 4.8 µM | IC50 [3]: 6.5 µM

SMILES: CN(C)c1ncnc2c1cnn2-c1ccc(Cl)cc1 [Compound 1445]
IC50 [1]: 0.6 µM | IC50 [2]: 0.7 µM | IC50 [3]: 1.2 µM

SMILES: CC1CCCCN1.CC1CCCCN1.[Cl][Cu][Cl] (stereo not shown) [Compound 1826]
IC50 [1]: 7 µM | IC50 [2]: 8 µM | IC50 [3]: 6 µM

SMILES: O=C(O)/C=C/c1ccc([N+](=O)[O-])cc1 [Compound 2067]
IC50 [1]: 5 µM | IC50 [2]: 3 µM

SMILES: NNC(=O)OCc1ccccc1 [Compound 2287]
IC50 [1]: 2.1 µM | IC50 [2]: 1.7 µM | IC50 [3]: 2.7 µM

SMILES: CCNc1ccc(-c2ccc(NCC)cc2)cc1 [Compound 2674]
IC50 [1]: 5.5 µM | IC50 [2]: 5.8 µM | IC50 [3]: 6.2 µM

SMILES: CCCCCCCC(=O)OC [Compound 3710]
IC50 [1]: 2.5 µM | IC50 [3]: 2.9 µM

SMILES: CCCCCCCCCC(=O)OC [Compound 3713]
IC50 [3]: 7 µM

SMILES: CNc1ccccc1O [Compound 3879]
IC50 [1]: 3.7 µM | IC50 [2]: 7.5 µM | IC50 [3]: 6.5 µM

SMILES: CCCN(C(C)=O)c1ccccc1 [Compound 4700]
IC50 [1]: 2 µM | IC50 [2]: 2 µM | IC50 [3]: 2.7 µM

SMILES: O=C(O)/C=C/c1ccccc1Cl [Compound 4792]
IC50 [1]: > 10 µM | IC50 [2]: 7.5 µM | IC50 [3]: > 10 µM

SMILES: CC(C)CCOC(=S)S [Compound 4864]
IC50 [1]: 8 µM | IC50 [2]: 6.5 µM | IC50 [3]: 8.8 µM

SMILES: CCC1CCC(C)NC1 (stereo not shown) [Compound 6119]
IC50 [1]: 9 µM | IC50 [2]: 7.4 µM | IC50 [3]: 9 µM

SMILES: CC(C)/C=N/Nc1ccc([N+](=O)[O-])cc1[N+](=O)[O-] [Compound 6122]
IC50 [1]: 5.8 µM | IC50 [2]: 3.7 µM | IC50 [3]: 5.3 µM

SMILES: O=[N+]([O-])c1ccc(CO)o1 [Compound 6454]
IC50 [1]: 5.8 µM | IC50 [2]: > 10 µM

SMILES: O=C(CCBr)OCCc1ccccc1 [Compound 7122]
IC50 [1]: 5 µM | IC50 [2]: 7.5 µM

SMILES: c1ccc(-c2oc(-c3ccccc3)c(CN3CCCCC3)c2CN2CCCCC2)cc1 [Compound 7473]
IC50 [1]: 9 µM | IC50 [2]: > 10 µM | IC50 [3]: > 10 µM

SMILES: Cc1ccccc1NCC(C)O (stereo not shown) [Compound 7484]
IC50 [1]: 9.5 µM | IC50 [2]: > 10 µM | IC50 [3]: > 10 µM

SMILES: C=CCOC(=O)c1ccc(Cl)cc1 [Compound 8216]
IC50 [1]: 9 µM | IC50 [2]: > 10 µM | IC50 [3]: > 10 µM

SMILES: O=C1C(CO)C(CO)C(CO)C1CO (stereo not shown) [Compound 9064]
IC50 [1]: > 10 µM | IC50 [2]: > 10 µM | IC50 [3]: > 10 µM

SMILES: Nc1ccc(S(=O)(=O)c2ccc(NCN3C(=O)NC(=O)C(=O)C3=O)cc2)cc1 [Compound 34238]
IC50 [1]: 1.8 µM | IC50 [3]: > 10 µM

SMILES: C=C(CC(=O)O)C(=O)O.C=CC(=O)O [Compound 146443]
IC50 [3]: 0.4 µM
